In PMC1345695 (Nucleic Acids Research, 2006):

Molecular target: wt tetrameric Lac repressor (tet. LacR) (Escherichia coli, UniProt P03023)
Test: band shift of operator DNA, IPTG titration, non-linear regression
Type: binding

Sequence of wt tetrameric Lac repressor (tet. LacR) (P03023 whole entry): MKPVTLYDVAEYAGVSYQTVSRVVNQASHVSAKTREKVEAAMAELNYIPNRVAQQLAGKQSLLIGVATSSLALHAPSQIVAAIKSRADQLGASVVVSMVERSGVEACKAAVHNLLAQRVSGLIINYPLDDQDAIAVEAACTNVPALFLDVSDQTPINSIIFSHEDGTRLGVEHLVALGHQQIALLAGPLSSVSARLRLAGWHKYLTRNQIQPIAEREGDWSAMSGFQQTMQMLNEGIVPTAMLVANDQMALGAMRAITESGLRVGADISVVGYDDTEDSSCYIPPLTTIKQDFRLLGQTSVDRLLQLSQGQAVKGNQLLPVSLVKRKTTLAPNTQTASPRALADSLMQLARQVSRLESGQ

## CC(C)S[C@@H]1O[C@H](CO)[C@H](O)[C@H](O)[C@H]1O [IPTG]
  Kd: 8.2 µM
